According to patent publication US11179390B2, “Subcutaneous administration of a P2Y12 receptor antagonist” (Idorsia Pharmaceuticals Ltd, priority 2017, dated 2021):
Like-named read-outs stand apart in the source and are kept apart here.

Tests used:
[1] = test system: Adenosine diphosphate (ADP)-induced platelet aggregation; assay: Inhibition of platelet aggregation (IPA), LTA assay, after single subcutaneous doses, clinical phase I study; format: in vivo, human (healthy male subjects); settings: for % IPA (inhibition of platelet aggregation) calculated using maximum platelet aggregation values, mean ± SD: N = 6, 20 μM ADP
Description: (§1) The time- and dose-dependency of plasma concentration and inhibition of platelet aggregation (IPA) after subcutaneous administration of Compound 1 was investigated in a clinical phase I study in healthy male subjects.
(§2) In a randomized, double-blind, placebo-controlled study, 48 subjects in fasted condition were exposed to single, subcutaneous doses ranging from 1 to 32 mg (1 mg, 2 mg, 4 mg, 8 mg, 16 mg and 32 mg) of Compound 1 (n=6 on Compound 1 and n=2 on placebo per dose level).
(§3) Compound 1 for s.c. administration was available as sealed glass vials at the strength of 20 mg. The vials contained lyophilized Compound 1 to be reconstituted with 1 mL of water for injection to prepare stock solutions of 20 mg/mL (see above: Formulation of Compound 1 (higher dose of 20 mg/mL)). These stock solutions were further diluted with 0.9% sodium chloride to prepare 2, 4, 8, 16, and 20 mg/mL solutions. The volume injected was 0.5 mL for dose levels 1, 2, 4, and 8 mg. For dose levels 16 and 32 mg, 1 or 2 injection(s) of 0.8 mL from the 20 mg/mL solution was (were) performed.
(§4) The solution for injection was prepared for administration in a syringe suitable for s.c. injection. The solution was administered as injection(s) in the thigh.
PD blood samples were collected by direct venipuncture or via an i.v. catheter placed in an antecubital vein in the arm, using 18-21 gauge needles. The first 2 mL of blood were discarded, and, thereafter, blood was drawn gently into two open 3.5 mL collection tubes. Collection tubes for LTA (light transmission aggregometry) assays contained phenylalanine-proline-arginine-cholormethylketone (PPACK) as an anticoagulant.
Adenosine diphosphate (ADP)-induced platelet aggregation was evaluated by a LTA assay measuring platelet-induced aggregation as an increase in light transmittance (Michelson A D, Methods for the measurement of platelet function (2009) Am J Cardiol 103(3):20A-26A).
LTA assay: The two 3.5 mL blood samples were centrifuged to prepare platelet-rich plasma (PRP) and platelet-poor plasma (PPP). If needed, PRP was adjusted to a final platelet count of 260×10^9 platelets per liter by dilution with PPP from the same donor. The assay was performed with an 8-channel platelet aggregometer, recording the aggregation after addition of 20 μM ADP as agonist for 6 min. The results are expressed as percent change in light transmittance at maximum (peak) platelet aggregation (MPA), calculated relative to the baseline signal of 0%. The measurements were performed in duplicate.

[2] = oral administration of Compound 1 or its prodrug, clinical phase I study; cited from earlier work
[3] = Plasma pharmacokinetics after single subcutaneous doses, clinical phase I study; format: in vivo, human (healthy male subjects); settings: male, human, sc, N = 6, plasma; for half-life: read-out: t1/2, G.M. (converted); for Tmax: read-out: tmax, Median
Description: as §1, §2, §3, §4
The plasma PK parameters of Compound 1 were derived by non-compartmental analysis of the plasma concentration-time profiles. The following parameters were obtained:
maximum plasma concentration (Cmax); time to reach Cmax (tmax); area under the plasma concentration-time curve (AUC) from zero to time t of the last measured concentration above the limit of quantification (AUC0−t); and terminal elimination half-life (t1/2).
Blood was collected by direct venipuncture or via an i.v. catheter placed in an antecubital vein in the arm in a 4 mL Monovette® or equivalent tube containing ethylene diamine tetra-acetic acid. Immediately following collection of the required blood volume, the Monovettes® were slowly tilted backwards and forwards (no shaking) to bring the anticoagulant into solution, and immediately cooled on ice. Within 30 min of collection, the Monovettes® were centrifuged at approximately 1500 g for 10 min at 4° C. The plasma was transferred into one labeled polypropylene tube to avoid carry-over of erythrocytes. All samples were stored in an upright position below −70° C.
The analysis of Compound 1 in plasma was performed using a validated liquid chromatography coupled to tandem mass spectrometry assay. The lower limit of quantification (LLOQ) was 1 ng/mL. Concentrations were calculated by interpolation from a calibration curve. Quality control (QC) samples were analyzed throughout the study. Their measured concentrations were used to determine between-run and overall precision and accuracy of the analysis.

[4] = test system: FeCl3 rat thrombosis model; settings: compared with Ticagrelor; cited from earlier work
[5] = Solubility in aqueous media; format: physicochemical; settings: lyophilized disodium salt of Compound 1, reconstituted in water, pH=8.4

CCCCOC(=O)N1CCN(C(=O)[C@H](CP(=O)(O)O)NC(=O)c2cc(N3CC[C@H](OC)C3)nc(-c3ccccc3)n2)CC1 [Compound 1, 4-((R)-2-{[6-((S)-3-methoxy-pyrrolidin-1-yl)-2-phenyl-pyrimidine-4-carbonyl]-amino}-3-phosphono-propionyl)-piperazine-1-carboxylic acid butyl ester]
% IPA (inhibition of platelet aggregation) calculated using maximum platelet aggregation values, mean ± SD ([1]; 1 mg s.c., 0.25 h): 61.4 ± 15.1% | % IPA (inhibition of platelet aggregation) calculated using maximum platelet aggregation values, mean ± SD ([1]; 1 mg s.c., 0.5 h): 64.4 ± 12.8% | % IPA (inhibition of platelet aggregation) calculated using maximum platelet aggregation values, mean ± SD ([1]; 1 mg s.c., 3 h): 15.8 ± 20.0% | % IPA (inhibition of platelet aggregation) calculated using maximum platelet aggregation values, mean ± SD ([1]; 1 mg s.c., 4 h): −10.0 ± 24.2% | % IPA (inhibition of platelet aggregation) calculated using maximum platelet aggregation values, mean ± SD ([1]; 1 mg s.c., 5 h): −6.1 ± 26.0% | % IPA (inhibition of platelet aggregation) calculated using maximum platelet aggregation values, mean ± SD ([1]; 1 mg s.c., 12 h): −4.5 ± 24.7% | % IPA (inhibition of platelet aggregation) calculated using maximum platelet aggregation values, mean ± SD ([1]; 1 mg s.c., 48 h): −47.7 ± 29.9% | % IPA (inhibition of platelet aggregation) calculated using maximum platelet aggregation values, mean ± SD ([1]; 2 mg s.c., 0.25 h): 60.3 ± 48.3% | % IPA (inhibition of platelet aggregation) calculated using maximum platelet aggregation values, mean ± SD ([1]; 2 mg s.c., 0.5 h): 79.5 ± 10.8% | % IPA (inhibition of platelet aggregation) calculated using maximum platelet aggregation values, mean ± SD ([1]; 2 mg s.c., 3 h): 36.8 ± 30.0% | % IPA (inhibition of platelet aggregation) calculated using maximum platelet aggregation values, mean ± SD ([1]; 2 mg s.c., 4 h): 35.5 ± 18.9% | % IPA (inhibition of platelet aggregation) calculated using maximum platelet aggregation values, mean ± SD ([1]; 2 mg s.c., 5 h): 14.1 ± 28.4% | % IPA (inhibition of platelet aggregation) calculated using maximum platelet aggregation values, mean ± SD ([1]; 2 mg s.c., 12 h): 31.3 ± 28.9% | % IPA (inhibition of platelet aggregation) calculated using maximum platelet aggregation values, mean ± SD ([1]; 2 mg s.c., 48 h): 11.3 ± 38.5% | % IPA (inhibition of platelet aggregation) calculated using maximum platelet aggregation values, mean ± SD ([1]; 4 mg s.c., 0.25 h): 79.7 ± 6.0% | % IPA (inhibition of platelet aggregation) calculated using maximum platelet aggregation values, mean ± SD ([1]; 4 mg s.c., 0.5 h): 84.7 ± 5.4% | % IPA (inhibition of platelet aggregation) calculated using maximum platelet aggregation values, mean ± SD ([1]; 4 mg s.c., 3 h): 58.5 ± 7.2% | % IPA (inhibition of platelet aggregation) calculated using maximum platelet aggregation values, mean ± SD ([1]; 4 mg s.c., 4 h): 50.6 ± 22.1% | % IPA (inhibition of platelet aggregation) calculated using maximum platelet aggregation values, mean ± SD ([1]; 4 mg s.c., 5 h): 47.9 ± 17.9% | % IPA (inhibition of platelet aggregation) calculated using maximum platelet aggregation values, mean ± SD ([1]; 4 mg s.c., 12 h): 37.4 ± 16.7% | % IPA (inhibition of platelet aggregation) calculated using maximum platelet aggregation values, mean ± SD ([1]; 4 mg s.c., 48 h): 2.1 ± 16.3% | % IPA (inhibition of platelet aggregation) calculated using maximum platelet aggregation values, mean ± SD ([1]; 8 mg s.c., 0.25 h): 88.9 ± 8.4% | % IPA (inhibition of platelet aggregation) calculated using maximum platelet aggregation values, mean ± SD ([1]; 8 mg s.c., 0.5 h): 90.0 ± 8.5% | % IPA (inhibition of platelet aggregation) calculated using maximum platelet aggregation values, mean ± SD ([1]; 8 mg s.c., 3 h): 77.9 ± 19.5% | % IPA (inhibition of platelet aggregation) calculated using maximum platelet aggregation values, mean ± SD ([1]; 8 mg s.c., 4 h): 70.9 ± 12.5% | % IPA (inhibition of platelet aggregation) calculated using maximum platelet aggregation values, mean ± SD ([1]; 8 mg s.c., 5 h): 75.2 ± 11.5% | % IPA (inhibition of platelet aggregation) calculated using maximum platelet aggregation values, mean ± SD ([1]; 8 mg s.c., 12 h): 64.0 ± 10.4% | % IPA (inhibition of platelet aggregation) calculated using maximum platelet aggregation values, mean ± SD ([1]; 8 mg s.c., 48 h): −1.3 ± 33.7% | duration for which mean % IPA≥85% was sustained post administration ([1]; 16 mg s.c.): approximately 5 h | % IPA (inhibition of platelet aggregation) calculated using maximum platelet aggregation values, mean ± SD ([1]; 16 mg s.c., 0.25 h): 92.8 ± 5.5% | % IPA (inhibition of platelet aggregation) calculated using maximum platelet aggregation values, mean ± SD ([1]; 16 mg s.c., 0.5 h): 93.1 ± 3.6% | % IPA (inhibition of platelet aggregation) calculated using maximum platelet aggregation values, mean ± SD ([1]; 16 mg s.c., 3 h): 95.0 ± 1.2% | % IPA (inhibition of platelet aggregation) calculated using maximum platelet aggregation values, mean ± SD ([1]; 16 mg s.c., 4 h): 88.2 ± 4.7% | % IPA (inhibition of platelet aggregation) calculated using maximum platelet aggregation values, mean ± SD ([1]; 16 mg s.c., 5 h): 87.6 ± 5.5% | % IPA (inhibition of platelet aggregation) calculated using maximum platelet aggregation values, mean ± SD ([1]; 16 mg s.c., 12 h): 76.0 ± 13.8% | % IPA (inhibition of platelet aggregation) calculated using maximum platelet aggregation values, mean ± SD ([1]; 16 mg s.c., 48 h): −1.6 ± 43.8% | duration for which mean % IPA≥85% was sustained post administration ([1]; 32 mg s.c.): ~12 h | % IPA (inhibition of platelet aggregation) calculated using maximum platelet aggregation values, mean ± SD ([1]; 32 mg s.c., 0.25 h): 95.5 ± 2.7% | % IPA (inhibition of platelet aggregation) calculated using maximum platelet aggregation values, mean ± SD ([1]; 32 mg s.c., 0.5 h): 94.5 ± 2.0% | % IPA (inhibition of platelet aggregation) calculated using maximum platelet aggregation values, mean ± SD ([1]; 32 mg s.c., 3 h): 94.5 ± 2.0% | % IPA (inhibition of platelet aggregation) calculated using maximum platelet aggregation values, mean ± SD ([1]; 32 mg s.c., 4 h): 91.2 ± 1.9% | % IPA (inhibition of platelet aggregation) calculated using maximum platelet aggregation values, mean ± SD ([1]; 32 mg s.c., 5 h): 92.1 ± 2.6% | % IPA (inhibition of platelet aggregation) calculated using maximum platelet aggregation values, mean ± SD ([1]; 32 mg s.c., 12 h): 83.5 ± 12.9% | % IPA (inhibition of platelet aggregation) calculated using maximum platelet aggregation values, mean ± SD ([1]; 32 mg s.c., 48 h): 29.8 ± 20.9% | time post dosing at which peak % IPA was achieved ([1]; at each dose level (1 to 32 mg s.c.)): 15 to 30 min | peak % IPA ([1]; doses ≥4 mg s.c.): exceeded 85% | peak % IPA ([1]; doses ≥8 mg s.c.): exceeded 85% | time in which peak % IPA exceeded 85% ([1]; doses ≥8 mg s.c.): less than 15 min | bleeding events [2]: No bleeding events were observed | AUC(0-t) ([3]; 1 mg s.c. single dose): 56.1 ng·h/mL | Cmax ([3]; 1 mg s.c. single dose): 33.7 ng/mL | half-life ([3]; 1 mg s.c. single dose): 1.34 h | Tmax ([3]; 1 mg s.c. single dose): 0.5 h | AUC(0-t) ([3]; 2 mg s.c. single dose): 116 ng·h/mL | Cmax ([3]; 2 mg s.c. single dose): 58.4 ng/mL | half-life ([3]; 2 mg s.c. single dose): 1.92 h | Tmax ([3]; 2 mg s.c. single dose): 0.5 h | AUC(0-t) ([3]; 4 mg s.c. single dose): 261 ng·h/mL | Cmax ([3]; 4 mg s.c. single dose): 128 ng/mL | half-life ([3]; 4 mg s.c. single dose): 2.66 h | Tmax ([3]; 4 mg s.c. single dose): 0.5 h | AUC(0-t) ([3]; 8 mg s.c. single dose): 585 ng·h/mL | Cmax ([3]; 8 mg s.c. single dose): 273 ng/mL | half-life ([3]; 8 mg s.c. single dose): 3.98 h | Tmax ([3]; 8 mg s.c. single dose): 0.5 h | AUC(0-t) ([3]; 16 mg s.c. single dose): 1120 ng·h/mL | Cmax ([3]; 16 mg s.c. single dose): 435 ng/mL | half-life ([3]; 16 mg s.c. single dose): 7.2 h | Tmax ([3]; 16 mg s.c. single dose): 0.75 h | AUC(0-t) ([3]; 32 mg s.c. single dose): 2340 ng·h/mL | Cmax ([3]; 32 mg s.c. single dose): 930 ng/mL | half-life ([3]; 32 mg s.c. single dose): 9.2 h | Tmax ([3]; 32 mg s.c. single dose): 0.75 h | therapeutic window [4]: significantly wider therapeutic window even than Ticagrelor | solubility [5]: 75 mg/mL
